Data taken from patent EP0097446B1, “Penicillin derivatives and process for preparation of the same” (TAIHO PHARMACEUTICAL COMPANY LIMITED, priority 1982, dated 1984).
pIC50: −log10 of the molar value. In brackets after ≈: the same amount, converted by molar mass. Where two headings read alike, the source gives them in different places.

Legend:
E.coli TH—397 = test: MIC by micro-broth dilution method; assay type: cell-based; conditions: Escherichia coli, 20 h, Table 2, read-out: MIC, Ampicillin (singly used)
Experimental: (§1) In the method, the bacteria cultivated in Mueller Hinton Broth (product of DIFCO) and diluted to 10' CFU/ml were inoculated into the same medium containing ampicillin and the present compound in a specific concentration, and incubated at 37°C for 20 hours. […] The bacteria as used in the test were those capable of producing β-lactamase, among which the bacteria marked ^* in the table are those collected from the living body of human hosts and the others are a stock culture.

[1] = system: 30 strains of coliform bacilli collected from the living body of humans; test: MIC50 and MIC70 against 30 clinical strains, antibiotics alone and combined with present compound; assay type: cell-based; conditions: for MIC50: Homo sapiens, 20 h, concentration inhibiting growth of 50% of 30 strains; for MIC70, Present compound as combined with ampicillin: MIC of ampicillin with present compound (10 pg/ml [sic]); for MIC70, Present compound as combined with ampicillin / MIC70, Present compound as combined with cephalexin / MIC70, Present compound as combined with mecillinam / MIC70, Present compound as combined with piperacillin: 70% of 30 strains; for MIC70, Present compound as combined with cephalexin: MIC of cephalexin with present compound (10 pg/ml [sic]); for MIC70, Present compound as combined with mecillinam: MIC of mecillinam with present compound (10 pg/ml [sic]); for MIC70, Present compound as combined with piperacillin: MIC of piperacillin with present compound (10 pg/ml [sic])
Experimental: as §1, with “The MIC of ampicillin as combined with the present compound (10 µg/ml) was measured against the same bacteria. In” for “In”
The compounds of the present invention, ampicillin, mecillinam, piperacillin and cephalexin, each singly used, were also tested for minimal inhibitory concentration against 30 strains of coliform bacilli collected from the living body of humans. The MIC of each antibiotic as combined with the present compound (10 pg/ml) was likewise measured. Table 4 to 7 indicate the results in which MlC50 and MlC70 indicate the minimal inhibitory concentration for inhibiting the growth of 50% and 70% respectively of the strains. The MICs of the present compounds singly used were all more than 25 µg/ml.

P.Mirabilis 121 = test: MIC by micro-broth dilution method; assay type: cell-based; conditions: Proteus mirabilis, 20 h, Table 2, read-out: MIC, Ampicillin (singly used)
Experimental: as §1, with “The MIC of ampicillin as combined with the present compound (10 µg/ml) was measured against the same bacteria. In” for “In”

P.mirabilis 121—1 = test: MIC by micro-broth dilution method; assay type: cell-based; conditions: Proteus mirabilis, 20 h, Table 3, inoculate 10^7 CFU/ml, singly used
Experimental: as §1, with “The MIC of ampicillin as combined with the present compound (10 µg/ml) was measured against the same bacteria. In” for “In”
(§2) The same test as above was carried out to determine the antibacterial activity of the sodium 2β-(4,5-dimethoxycarbonyl-1,2,3-triazole-1-yl)methyl-2a-methylpenam-3a-carboxylate-1,1-dioxide (Compound 26) obtained in Example 24.

E.coli TH—34 = test: MIC by micro-broth dilution method; assay type: cell-based; conditions: Escherichia coli, 20 h, Table 3, inoculate 10^7 CFU/ml, singly used
Experimental: as §1, with “The MIC of ampicillin as combined with the present compound (10 µg/ml) was measured against the same bacteria. In” for “In”
as §2

S.aureus S—54 = test: MIC by micro-broth dilution method; assay type: cell-based; conditions: Staphylococcus aureus
Experimental: as §1, with “The MIC of ampicillin as combined with the present compound (10 µg/ml) was measured against the same bacteria. In” for “In”
as §2

P.vulgaris IID OX—19 = test: MIC by micro-broth dilution method; assay type: cell-based; conditions: Proteus vulgaris, 20 h
Experimental: as §1, with “The MIC of ampicillin as combined with the present compound (10 µg/ml) was measured against the same bacteria. In” for “In”
as §2

E.coli TH—13 = test: MIC by micro-broth dilution method; assay type: cell-based; conditions: Escherichia coli, 20 h
Experimental: as §1, with “The MIC of ampicillin as combined with the present compound (10 µg/ml) was measured against the same bacteria. In” for “In”
as §2

S.aureus ATCC 90124 = test: MIC by micro-broth dilution method; assay type: cell-based; conditions: Staphylococcus aureus, ATCC90124, 20 h
Experimental: as §1, with “The MIC of ampicillin as combined with the present compound (10 µg/ml) was measured against the same bacteria. In” for “In”
as §2

S.marcescens TH—05 = test: MIC by micro-broth dilution method; assay type: cell-based; conditions: Serratia marcescens, 20 h
Experimental: as §1, with “The MIC of ampicillin as combined with the present compound (10 µg/ml) was measured against the same bacteria. In” for “In”
as §2

[2] = target: penicillinase (β-lactamase) from Bacillus SP; test: β-lactamase inhibitory activity by microiodometry, penicillin G as substrate; assay type: biochemical; conditions: read-out: 50% Inhibitory Concentration
Experimental: The inhibitory activity against penicillinase (β-lactamase) from Bacillus SP was measured by . microiodometry [Tanpakushitsu Kakusan Koso (Protein Nucleic Acid Enzyme), vol. 23, No. 5, pp 391-400 (1978)] using a penicillin G as a substrate.

[3] = target: penicillinase (β-lactamase) from Bacillus SP; test: β-lactamase inhibitory activity by pH stat method, penicillin G as substrate; assay type: biochemical; conditions: read-out: 50% β-lactamase inhibitory concentration
[4] = concentration inhibiting growth of 70% of 30 strains
[5] = Table 2, read-out: MIC, Ampicillin (singly used)
[6] = Table 3, inoculate 10^7 CFU/ml, singly used, read-out: MIC, Ampicillin
[7] = Table 3, inoculate 10^7 CFU/ml, singly used, read-out: MIC, Comp. 26

In the case of CC1(C)S[C@@H]2[C@H](NC(=O)[C@H](N)c3ccccc3)C(=O)N2[C@H]1C(=O)O [Ampicillin, ampicillin], the MIC (E.coli TH—397) was 400 µg/mL (≈ 1140 µM), the MIC50 ([1]; read-out: MIC50, Ampicillin singly used) was 400 µg/mL and the “MIC70, Ampicillin singly used” value [1, 4] was >400 µg/mL. The MIC (P.Mirabilis 121) was > 400 µg/mL, the MIC (P.mirabilis 121—1; read-out: MIC, Ampicillin) was 800 µg/mL (≈ 2290 µM) and the MIC (E.coli TH—34; read-out: MIC, Ampicillin) was 800 µg/mL (≈ 2290 µM). It also gave an MIC (S.aureus S—54; 20 h, Table 3, inoculate 10^7 CFU/ml, singly used, read-out: MIC, Ampicillin) of 100 µg/mL (≈ 286 µM), an MIC (S.aureus S—54; Table 2, 37°C, 20 hours, read-out: MIC, Ampicillin (singly used)) of 25 µg/mL (≈ 71.5 µM) and an MIC (P.vulgaris IID OX—19; [5]) of 100 µg/mL (≈ 286 µM). The MIC (P.vulgaris IID OX—19; [6]) was 25 µg/mL (≈ 71.5 µM), the MIC (E.coli TH—13; [5]) was 400 µg/mL (≈ 1140 µM) and the MIC (E.coli TH—13; [6]) was 400 µg/mL (≈ 1140 µM). The MIC (S.aureus ATCC 90124; [5]) was 25 µg/mL (≈ 71.5 µM), the MIC (S.aureus ATCC 90124; [6]) was 50 µg/mL (≈ 143 µM) and the MIC (S.marcescens TH—05; [5]) was > 400 µg/mL. For the same compound, the MIC (S.marcescens TH—05; [6]) was 800 µg/mL (≈ 2290 µM).

For CC1=C(C(=O)O)N2C(=O)[C@@H](NC(=O)[C@H](N)c3ccccc3)[C@H]2SC1 [Cephalexin, cephalexin, reference compound], the MIC50 ([1]; read-out: MIC50, Cephalexin singly used) was 25 µg/mL and the “MIC70, Cephalexin singly used” value [1, 4] was 100 µg/mL.

In the case of CCOC(=O)c1cn(C[C@@]2(C)[C@H](C(=O)O)N3C(=O)C[C@H]3S2(=O)=O)nn1 [Compound 7, sodium 2β-(4-ethoxycarbonyl-1,2,3-triazole-1-yl)methyl-2α-methylpenam-3α-caboxylate-1,1-dioxide], the “MIC70, Present compound as combined with ampicillin” value (from here on “MIC70 … with ampicillin”) [1] was 50 µg/mL, the “MIC70, Present compound as combined with cephalexin” value (from here on “MIC70 … with cephalexin”) [1] was 100 µg/mL and the “MIC70, Present compound as combined with mecillinam” value (from here on “MIC70 … with mecillinam”) [1] was 0.39 µg/mL. For the same compound, the “MIC70, Present compound as combined with piperacillin” value (from here on “MIC70 … with piperacillin”) [1] was 6.25 µg/mL and the pIC50 [2] was 7.27.

For CCOC(=O)c1cnnn1C[C@@]1(C)[C@H](C(=O)O)N2C(=O)C[C@H]2S1(=O)=O [Compound 11, sodium 2β-(5-ethoxycarbonyl-1,2,3-triazole-1-yl)methyl-2α-methylpenam-3α-carboxylate-1,1-dioxide], the “MIC70 … with ampicillin” value [1] was 100 µg/mL, the “MIC70 … with cephalexin” value [1] was 100 µg/mL and the “MIC70 … with mecillinam” value [1] was 0.39 µg/mL. The “MIC70 … with piperacillin” value [1] was 25 µg/mL and the pIC50 [2] was 6.47.

For COC(=O)c1cn(C[C@@]2(C)[C@H](C(=O)O)N3C(=O)C[C@H]3S2(=O)=O)nn1 [Compound 12, sodium 2β-(4-methoxycarbonyl-1,2,3-triazole-1-yl)methyl-2a-methylpenam-3α-carboxylate-1,1-dioxide], the pIC50 [2] was 7.31.

With COC(=O)c1cnnn1C[C@@]1(C)[C@H](C(=O)O)N2C(=O)C[C@H]2S1(=O)=O [Compound 13, sodium 2β-(5-methoxycarbonyl-1,2,3-triazote-1-yl)methyl-2α-methylpenam-3α-carboxylate-1,1-dioxide] the pIC50 [2] was 6.52.

C[C@]1(Cn2cc(C(=O)O)nn2)[C@H](C(=O)O)N2C(=O)C[C@H]2S1(=O)=O [Compound 16, dipotassium 2β-(4-carboxy-1,2,3-triazole-1-yl)methyl-2α-methylpenam-3α-carboxylate-1,1-dioxide] was tested, and the “MIC70 … with ampicillin” value [1] was 6.25 µg/mL, the “MIC70 … with cephalexin” value [1] was 25 µg/mL and the “MIC70 … with mecillinam” value [1] was 0.1 µg/mL. For the same compound, the “MIC70 … with piperacillin” value [1] was 3.13 µg/mL and the pIC50 [2] was 6.22.

C[C@]1(Cn2nncc2C(=O)O)[C@H](C(=O)O)N2C(=O)C[C@H]2S1(=O)=O [Compound 17, dipotassium 2β-(5-carboxy-1,2,3-triazole-1-yl)methyl-2α-methylpenam-3α-carboxylate-1,1-dioxide] was tested, and the “MIC70 … with ampicillin” value [1] was 100 µg/mL, the “MIC70 … with cephalexin” value [1] was 12.5 µg/mL and the “MIC70 … with mecillinam” value [1] was 0.39 µg/mL. For the same compound, the “MIC70 … with piperacillin” value [1] was 50 µg/mL and the pIC50 [2] was 5.77.

With C[C@]1(Cn2ccnn2)[C@H](C(=O)O)N2C(=O)C[C@H]2S1(=O)=O [Compound 22, sodium 2α-methyl-2β-(1,2,3-triazole-1-yl)-methylpenam-3α-carboxylate-1,1-dioxide] the “MIC70 … with ampicillin” value [1] was 6.25 µg/mL, the “MIC70 … with cephalexin” value [1] was 50 µg/mL and the “MIC70 … with mecillinam” value [1] was 0.2 µg/mL. For the same compound, the “MIC70 … with piperacillin” value [1] was 1.56 µg/mL and the pIC50 [2] was 6.16.

For C[C@]1(Cn2cc([Si](C)(C)C)nn2)[C@H](C(=O)O)N2C(=O)C[C@H]2S1(=O)=O [Compound 24, sodium 2α-methyl-2β-(4-trimethylsilyl-1,2,3-triazole-1-yl)-methylpenam-3α-carboxylate-1,1-dioxide], the pIC50 [2] was 6.29.

In the case of COC(=O)c1nnn(C[C@@]2(C)[C@H](C(=O)O)N3C(=O)C[C@H]3S2(=O)=O)c1C(=O)OC [Compound 26, sodium 2β-(4,5-dimethoxycarbonyl-1,2,3-triazole-1-yl)-methyl-2α-methylpenam-3α-carboxylate-1,1-dioxide], the pIC50 [3] was 6.52, the MIC (P.mirabilis 121—1; read-out: MIC, Comp. 26) was > 50 µg/mL and the MIC (E.coli TH—34; read-out: MIC, Comp. 26) was > 50 µg/mL. For the same compound, the MIC (S.aureus S—54; 20 h, Table 3, inoculate 10^7 CFU/ml, singly used, read-out: MIC, Comp. 26) was > 50 µg/mL, the MIC (P.vulgaris IID OX—19; [7]) was 25 µg/mL and the MIC (E.coli TH—13; [7]) was > 50 µg/mL. The MIC (S.aureus ATCC 90124; [7]) was > 50 µg/mL and the MIC (S.marcescens TH—05; [7]) was > 50 µg/mL.

For C[C@]1(Cn2nnc(C(=O)O)c2C(=O)O)[C@H](C(=O)O)N2C(=O)C[C@H]2S1(=O)=O [Compound 39, tri-sodium 2β-(4,5-dicarboxy-1,2,3-triazole-1-yl)methyl-2α-methylpenam-3α-carboxylate-1,1-dioxide], the pIC50 [2] was 5.64.

CC1(C)S[C@@H]2[C@H](/N=C/N3CCCCCC3)C(=O)N2[C@H]1C(=O)O [Mecillinam, mecillinam, reference compound] was tested, and the MIC50 ([1]; read-out: MIC50, Mecillinam singly used) was 3.13 µg/mL and the “MIC70, Mecillinam singly used” value [1, 4] was 12.5 µg/mL.

In the case of CCN1CCN(C(=O)N[C@@H](C(=O)N[C@@H]2C(=O)N3[C@@H]2SC(C)(C)[C@@H]3C(=O)O)c2ccccc2)C(=O)C1=O [Piperacillin, piperacillin, reference compound], the MIC50 ([1]; read-out: MIC50, Piperacillin singly used) was 50 µg/mL and the “MIC70, Piperacillin singly used” value [1, 4] was 200 µg/mL.
